Results published in patent US10508086B2 (CANCER RESEARCH TECHNOLOGY LIMITED, priority 2014, dated 2019).
Read-outs that look alike come from different tables or passages of the source.

Tests used:
[1] = target: PARG in HeLa cell line (Homo sapiens (Human), UniProt Q86W56); assay: PARG cell assay (nuclear PAR chains after MMS, immunofluorescence); format: cell-based
Procedure: This method is based on the detection of endogenous levels of poly (ADP) ribose chains present in the nucleus of HeLa cell line using indirect immunofluorescence. MMS stimulation increases PAR chains for up to 25 mins. After that point, PARG is active and breaks down the PAR chains, until by one hour after stimulation no PAR chains are detectable. Inhibition of PARG maintains PAR chains.
Briefly, following compound treatment and treatment with the DNA damaging agent methylmethanesulfonate (MMS), the cell monolayer is fixed, then permeabilised and incubated with a mouse monoclonal antibody raised against multimers of poly(ADP) ribose. After an overnight incubation, excess antibody is removed by washing and an Alexafluor 488-linked secondary antibody which recognises the mouse monoclonal is added together with a nuclear stain (Hoechst 33342). Images of the cells are then captured and analysed on a High Content Screening platform and the total intensity of the nuclear fluorescent signal at […] is quantified.
HeLa cells, seeded in 384-well plates, at 4000/well in 30 μL RPMI 1640 media, supplemented with 10% FBS and 2 mM Glutamax, were incubated overnight at 37° C., 5% CO2.
The following day, cells were dosed in quadruplicate with compound (10 point dose response) and incubated for 1 h at 37° C., 5% CO2.
At the end of the 1 h dosing period, MMS was added to duplicates at a final concentration of 50 μg/mL, for a further hour.
Media was tipped off and the cells fixed with 50 μL ice-cold 95% MetOH/PBS for 15 mins at −20° C. Following a PBS wash, 50 μL PBS/0.1% Triton was added to the cells for 20 mins. Following another PBS wash, anti-PAR antibody (Calbiochem AM80) was diluted 1:4000 in a buffer (PBS+0.5% FBS+0.05% Tween20) and added to the cells and incubated overnight at 4° C.
The following day, cells were washed three times with PBS and then incubated for 1 hr with secondary antibody (Alexa Fluor® 488 goat anti mouse IgG (H+L)) diluted 1:1000 and Hoechst diluted 1:5000 in buffer (5% FBS in PBS+0.05% Tween20).
Cells were washed three times with PBS and the plate sealed with a light-proof seal.
Images of the cells were captured on a ThermoFisher Celllnsight and the mean total intensity of spots fluorescent at 485 nm in the nucleus was reported.

[2] = target: Human Full Length PARG (Homo sapiens (Human), UniProt Q86W56); assay: PARG in vitro enzyme assay (TR-FRET); format: biochemical; conditions: read-out: PARG_EC50_ENZYME
Procedure, shortened: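 Full-length human PARG ([…]) incubated with ribosylated PARP substrate (4.5 nM) for 10 min at room temperature in Tris pH 7.4 buffer with EDTA, EGTA, DTT, KCl. Detection by TR-FRET using anti-6HIS XL665 (14 nM final) and streptavidin europium cryptate (0.75 nM final) after 60 min; Em665/Em620 ratio converted to percent inhibition.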

[3] = HeLa cells, MMS 50 μg/mL, read-out: PARG Cell IC50 Geomean

Sequence of PARG in HeLa cell line (Q86W56 whole entry): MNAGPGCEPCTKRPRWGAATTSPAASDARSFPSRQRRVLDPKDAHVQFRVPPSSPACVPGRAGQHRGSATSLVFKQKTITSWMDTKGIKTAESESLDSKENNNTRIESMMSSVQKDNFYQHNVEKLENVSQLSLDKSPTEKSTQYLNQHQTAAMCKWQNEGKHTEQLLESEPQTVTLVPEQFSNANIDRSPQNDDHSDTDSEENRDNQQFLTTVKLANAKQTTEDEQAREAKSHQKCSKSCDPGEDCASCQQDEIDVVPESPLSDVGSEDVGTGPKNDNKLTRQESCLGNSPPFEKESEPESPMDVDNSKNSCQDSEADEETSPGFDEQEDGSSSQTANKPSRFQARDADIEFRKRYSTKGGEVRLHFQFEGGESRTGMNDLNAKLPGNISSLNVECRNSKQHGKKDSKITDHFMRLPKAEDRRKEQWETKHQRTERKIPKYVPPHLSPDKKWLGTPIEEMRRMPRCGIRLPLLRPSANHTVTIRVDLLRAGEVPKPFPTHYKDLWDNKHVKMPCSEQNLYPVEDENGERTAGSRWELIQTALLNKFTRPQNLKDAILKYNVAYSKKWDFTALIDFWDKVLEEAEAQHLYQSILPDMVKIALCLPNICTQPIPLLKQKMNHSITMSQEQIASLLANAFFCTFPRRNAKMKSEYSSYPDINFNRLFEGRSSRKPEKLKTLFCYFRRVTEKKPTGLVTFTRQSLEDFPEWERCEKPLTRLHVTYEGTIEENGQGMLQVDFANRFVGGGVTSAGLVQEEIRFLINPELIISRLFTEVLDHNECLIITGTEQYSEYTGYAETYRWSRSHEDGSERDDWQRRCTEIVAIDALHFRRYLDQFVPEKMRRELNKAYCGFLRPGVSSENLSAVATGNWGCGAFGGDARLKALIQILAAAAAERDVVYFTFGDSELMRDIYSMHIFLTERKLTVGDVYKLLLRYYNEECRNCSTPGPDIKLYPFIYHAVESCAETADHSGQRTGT
Sequence of Human Full Length PARG (Q86W56 whole entry): as above

SMILES	IC50 [1, 3] [µM]	EC50 [2] [µM]	IC50 [1] [µM]
Cc1cc(Cn2c(=O)n(-c3nnc(C(F)F)s3)c3cc(S(=O)(=O)NC4(C#N)CC4)ccc32)n(C)n1 [Example 165, N-(1-Cyanocyclopropyl)-3-[5-(difluoromethyl)-1,3,4-thiadiazol-2-yl]-1-[(2,5-dimethylpyrazol-3-yl)methyl]-2-oxo-benzimidazole-5-sulfonamide]	0.127	0.234	–
Cn1c(=O)n(-c2ncns2)c2cc(S(=O)(=O)NC3(CF)CC3)ccc21 [Example 175, N-[1-(Fluoromethyl)cyclopropyl]-1-methyl-2-oxo-3-(1,2,4-thiadiazol-5-yl)benzimidazole-5-sulfonamide]	0.551	0.25	–
Cn1c(=O)n(-c2nnc(C(F)F)s2)c2cc(S(=O)(=O)NC3(C)CC3)c(F)cc21 [Example 173, 3-[5-(Difluoromethyl)-1,3,4-thiadiazol-2-yl]-6-fluoro-1-methyl-N-(1-methylcyclopropyl)-2-oxo-benzimidazole-5-sulfonamide]	0.064	0.141	–
Cc1ccc(Cn2c(=O)n(-c3nnc(C)s3)c3cc(S(=O)(=O)NC4(C)CC4)ccc32)s1 [Example 104]	0.245	0.28	–
Cc1cc(Cn2c(=O)n(-c3nnc(C(F)F)s3)c3cc(S(=O)(=O)NC4(CF)CC4)ccc32)n(C)n1 [Example 164, 3-[5-(Difluoromethyl)-1,3,4-thiadiazol-2-yl]-1-[(2,5-dimethylpyrazol-3-yl)methyl]-N-[1-(fluoromethyl)cyclopropyl]-2-oxo-benzimidazole-5-sulfonamide]	0.109	0.203	–
Cc1nsc(-n2c(=O)n(CC#N)c3ccc(S(=O)(=O)NC4(C)CC4)cc32)n1 [Example 179, 1-(Cyanomethyl)-N-(1-methylcyclopropyl)-3-(3-methyl-1,2,4-thiadiazol-5-yl)-2-oxo-benzimidazole-5-sulfonamide]	1.16	1.15	–
Cc1nnc(-n2c(=O)n(CC#N)c3ccc(S(=O)(=O)NC4(C)CC4)cc32)s1 [Example 166, 1-(Cyanomethyl)-N-(1-methylcyclopropyl)-3-(5-methyl-1,3,4-thiadiazol-2-yl)-2-oxo-benzimidazole-5-sulfonamide]	0.291	0.784	–
CCn1c(=O)n(-c2nnc(C(F)F)o2)c2cc(S(=O)(=O)NC3(CF)CC3)ccc21 [Example 202, 3-[5-(Difluoromethyl)-1,3,4-oxadiazol-2-yl]-1-ethyl-N-[1-(fluoromethyl)cyclopropyl]-2-oxo-benzimidazole-5-sulfonamide]	0.24	0.421	–
COCCn1c(=O)n(-c2ncns2)c2cc(S(=O)(=O)NC3(CF)CC3)ccc21 [Example 183, N-[1-(Fluoromethyl)cyclopropyl]-1-(2-methoxyethyl)-2-oxo-3-(1,2,4-thiadiazol-5-yl)benzimidazole-5-sulfonamide]	0.376	0.549	–
Cc1ccc(Cn2c(=O)n(-c3nnc(C)s3)c3cc(S(=O)(=O)NC4(C)CC4)ccc32)o1 [Example 103]	0.221	0.284	–
CCn1c(=O)n(-c2nnc(C(F)F)o2)c2cc(S(=O)(=O)NC3(C)CC3)ccc21 [Example 201, 3-[5-(Difluoromethyl)-1,3,4-oxadiazol-2-yl]-1-ethyl-N-(1-methylcyclopropyl)-2-oxo-benzimidazole-5-sulfonamide]	0.189	0.759	–
Cc1nnc(-n2c(=O)n(CCC(N)=O)c3ccc(S(=O)(=O)NC4(C)CC4)cc32)s1 [Example 154]	9.08	0.614	–
Cc1nnc(-n2c(=O)n(Cc3sc(C)nc3C)c3ccc(S(=O)(=O)NC4(C)CC4)cc32)o1 [Example 99]	0.342	0.202	–
CCn1c(=O)n(-c2nnc(C(F)F)s2)c2cc(S(=O)(=O)NC3(C)CC3)c(F)cc21 [Example 207, 3-[5-(Difluoromethyl)-1,3,4-thiadiazol-2-yl]-1-ethyl-6-fluoro-N-(1-methylcyclopropyl)-2-oxo-benzimidazole-5-sulfonamide]	0.024	0.133	–
Cn1c(=O)n(-c2nnc(C(F)F)o2)c2cc(S(=O)(=O)NC3(C)CC3)ccc21 [Example 195, 3-[5-(Difluoromethyl)-1,3,4-oxadiazol-2-yl]-1-methyl-N-(1-methylcyclopropyl)-2-oxo-benzimidazole-5-sulfonamide]	0.457	1.01	–
Cc1nnc(-n2c(=O)n(C)c3cc(F)c(S(=O)(=O)NC4(C)CC4)cc32)s1 [Example 116, 6-Fluoro-1-methyl-N-(1-methylcyclopropyl)-3-(5-methyl-1,3,4-thiadiazol-2-yl)-2-oxo-benzimidazole-5-sulfonamide]	0.197	0.245	–
C#CCn1c(=O)n(-c2nnc(C)s2)c2cc(S(=O)(=O)NC3(C)CC3)ccc21 [Example 100]	0.194	0.265	–
COCCn1c(=O)n(-c2nc(C)ns2)c2cc(S(=O)(=O)NC3(C)CC3)ccc21 [Example 182, 1-(2-Methoxyethyl)-N-(1-methylcyclopropyl)-3-(3-methyl-1,2,4-thiadiazol-5-yl)-2-oxo-benzimidazole-5-sulfonamide]	0.537	0.309	–
Cc1nnc(-n2cc(C(=O)c3ccc(F)cc3)c3ccc(S(=O)(=O)NC4(C)CC4)cc32)s1 [Example 131, 3-(4-Fluorobenzoyl)-N-(1-methylcyclopropyl)-1-(5-methyl-1,3,4-thiadiazol-2-yl)indole-6-sulfonamide]	–	0.261	0.228
Cc1nnc(-n2c(=O)[nH]c3cc(F)c(S(=O)(=O)NC4(CF)CC4)cc32)o1 [Example 194, 6-Fluoro-N-[1-(fluoromethyl)cyclopropyl]-3-(5-methyl-1,3,4-oxadiazol-2-yl)-2-oxo-1H-benzimidazole-5-sulfonamide]	> 30	1.24	–
COCCn1c(=O)n(-c2nnc(C(F)F)s2)c2cc(S(=O)(=O)NC3(C#N)CC3)ccc21 [Example 162, N-(1-Cyanocyclopropyl)-3-[5-(difluoromethyl)-1,3,4-thiadiazol-2-yl]-1-(2-methoxyethyl)-2-oxo-benzimidazole-5-sulfonamide]	0.176	0.26	–
COCCn1c(=O)n(-c2nnc(C(F)F)s2)c2cc(S(=O)(=O)NC3(C)CC3)ccc21 [Example 169, 3-[5-(Difluoromethyl)-1,3,4-thiadiazol-2-yl]-1-(2-methoxyethyl)-N-(1-methylcyclopropyl)-2-oxo-benzimidazole-5-sulfonamide]	0.036	0.355	–
Cc1nnc(-n2cc(C(=O)C3CC3)c3ccc(S(=O)(=O)NC4(C)CC4)cc32)s1 [Example 130, 3-(Cyclopropanecarbonyl)-N-(1-methylcyclopropyl)-1-(5-methyl-1,3,4-thiadiazol-2-yl) indole-6-sulfonamide]	0.135	0.218	–
Cc1nsc(-n2c(=O)n(CCN(C)C)c3ccc(S(=O)(=O)NC4(CF)CC4)cc32)n1 [Example 186, 1-[2-(Dimethylamino)ethyl]-N-[1-(fluoromethyl)cyclopropyl]-3-(3-methyl-1,2,4-thiadiazol-5-yl)-2-oxo-benzimidazole-5-sulfonamide]	3.12	4.23	–
C#CCn1c(=O)n(-c2nnc(C(F)F)s2)c2cc(S(=O)(=O)NC3(CF)CC3)ccc21 [Example 193, 3-[5-(Difluoromethyl)-1,3,4-thiadiazol-2-yl]-N-[1-(fluoromethyl)cyclopropyl]-2-oxo-1-prop-2-ynyl-benzimidazole-5-sulfonamide]	0.04	0.153	–
Cc1nsc(-n2c(=O)n(CC#N)c3ccc(S(=O)(=O)NC4(CF)CC4)cc32)n1 [Example 180, 1-(Cyanomethyl)-N-[1-(fluoromethyl)cyclopropyl]-3-(3-methyl-1,2,4-thiadiazol-5-yl)-2-oxo-benzimidazole-5-sulfonamide]	1.93	1.13	–
COCCn1c(=O)n(-c2nnc(C(F)F)s2)c2cc(S(=O)(=O)NC3(CF)CC3)c(F)cc21 [Example 167, 3-[5-(Difluoromethyl)-1,3,4-thiadiazol-2-yl]-6-fluoro-N-[1-(fluoromethyl)cyclopropyl]-1-(2-methoxyethyl)-2-oxo-benzimidazole-5-sulfonamide]	0.046	0.074	–
